Assay results reported in ChEMBL document CHEMBL5625210, “5-Cyano substituted diarylpyridines as potent HIV-1 NNRTIs: Rational design, synthesis, and activity evaluation” (Eur J Med Chem, 2023).

Assays:
[1] = Cytotoxicity against human MT4 cells assessed as reduction in cell viability incubated for 5 days by MTT assay; format: toxicity, cell-based; conditions: time 5 day
[2] = test system: Human immunodeficiency virus 1; assay: Antiviral activity against HIV-1 K103N mutant infected in human MT4 cells assessed as protection against virus-induced cytopathic effect incubated for 5 days by MTT assay; format: functional, organism-based; conditions: Human immunodeficiency virus 1, MT4, 120 h
[3] = in vitro; conditions: human, MT4 cells
Description: Selectivity index, ratio of CC50 for cytotoxicity against human MT4 cells to EC50 for antiviral activity against wild type HIV-1 IIIB infected in human MT4 cells

[4] = test system: Human immunodeficiency virus 1; assay: Antiviral activity against HIV-1 […] mutant infected in human MT4 cells assessed as protection against virus-induced cytopathic effect incubated for 5 days by MTT assay; format: functional, organism-based; conditions: Human immunodeficiency virus 1, MT4, 120 h
[5] = test system: Human immunodeficiency virus 1; assay: Antiviral activity against HIV-1 F227L/V106A mutant infected in human MT4 cells assessed as protection against virus-induced cytopathic effect incubated for 5 days by MTT assay; format: functional, organism-based; conditions: Human immunodeficiency virus 1, MT4, 120 h
[6] = test system: Human immunodeficiency virus 1; assay: Antiviral activity against wild type HIV-1 IIIB infected in human MT4 cells assessed as protection against virus-induced cytopathic effect incubated for 5 days by MTT assay; format: functional, organism-based; conditions: Human immunodeficiency virus 1, IIIB, MT4, 120 h
[7] = test system: Human immunodeficiency virus 1; assay: Antiviral activity against HIV-1 E138K mutant infected in human MT4 cells assessed as protection against virus-induced cytopathic effect incubated for 5 days by MTT assay; format: functional, organism-based; conditions: Human immunodeficiency virus 1, MT4, 120 h
[8] = test system: Human immunodeficiency virus 2; assay: Antiviral activity against wild type HIV-2 ROD infected in human MT4 cells assessed as protection against virus-induced cytopathic effect incubated for 5 days by MTT assay; format: functional, organism-based; conditions: Human immunodeficiency virus 2, ROD, MT4, 120 h
[9] = test system: Human immunodeficiency virus 1; assay: Antiviral activity against HIV-1 Y188L mutant infected in human MT4 cells assessed as protection against virus-induced cytopathic effect incubated for 5 days by MTT assay; format: functional, organism-based; conditions: Human immunodeficiency virus 1, MT4, 120 h
[10] = test system: Human immunodeficiency virus 1; assay: microbe, parasite or virus in culture; conditions: Human immunodeficiency virus 1, MT4, 120 h
Description: Antiviral activity against HIV-1 RES056 mutant infected in human MT4 cells assessed as protection against virus-induced cytopathic effect incubated for 5 days by MTT assay

[11] = test system: Human immunodeficiency virus 1; assay: Antiviral activity against HIV-1 Y181C mutant infected in human MT4 cells assessed as protection against virus-induced cytopathic effect incubated for 5 days by MTT assay; format: functional, organism-based; conditions: Human immunodeficiency virus 1, MT4, 120 h
[12] = molecular target: Human immunodeficiency virus type 1 reverse transcriptase (Human immunodeficiency virus 1, UniProt Q72547); assay: Inhibition of wild type HIV-1 reverse transcriptase assessed as inhibition of biotin-dUTP incorporation using ABTS as substrate incubated for 1 hrs by ELISA analysis

SMILES	CC50 at 120 h [1] [nM]	EC50 [2] [nM]	selectivity ratio [3]	EC50 [4] [nM]	EC50 [5] [nM]	EC50 [6] [nM]	EC50 [7] [nM]	EC50 [8] [nM]	EC50 [9] [nM]	EC50 [10] [nM]	EC50 [11] [nM]	IC50 [12] [nM]
Cc1cn([C@@H]2C[C@@H](N=[N+]=[N-])[C@H](CO)O2)c(=O)[nH]c1=O	> 7480	29.6	> 250	10.5	37.8	30	23.6	0.036	21	28.8	22.1	–
Cc1cc(C#N)cc(C)c1Oc1nc(NC2CCN(Cc3ccc(S(C)(=O)=O)cc3)CC2)c(C#N)cc1Cl	> 227000	–	> 10400	–	–	21.8	–	> 227	–	–	–	449
Cc1cc(C#N)cc(C)c1Oc1ccc(C#N)c(Nc2ccc(C#N)c(C#N)c2)n1	> 320000	–	> 2780	–	–	115	–	> 320	–	–	–	697
Cc1cc(C#N)cc(C)c1Oc1nc(Nc2ccc(C#N)cc2)c(C#N)cc1Cl	240000	–	8340	–	–	28.7	–	> 240	–	–	–	153
Cc1cc(C#N)cc(C)c1Oc1nc(NC2CCN(Cc3ccc(S(N)(=O)=O)cc3)CC2)c(C#N)cc1Cl	22600	–	691	–	–	32.7	–	> 22.6	–	–	–	466
Cc1cc(C#N)cc(C)c1Oc1nc(Nc2ccc(C#N)c(F)c2)c(C#N)cc1F	218000	540	20900	316	710	10.4	141	> 218	16700	> 218000	1930	143
Cc1cc(C#N)cc(C)c1Oc1nc(Nc2ccc(C#N)c(C#N)c2)c(C#N)cc1Cl	202000	233	14300	313	2250	14.1	287	> 202	> 202000	> 202000	1120	144
Cc1cc(C#N)cc(C)c1Oc1ccc(C#N)c(Nc2ccc(C#N)cc2)n1	> 65200	446	> 8330	123	10900	7.82	54.8	> 326	≥ 33000	> 65200	1540	94
Cc1cc(C#N)cc(C)c1Oc1nc(NC2CCN(Cc3ccc(S(N)(=O)=O)cc3)CC2)c(C#N)cc1F	25200	16.8	2250	43	234	11.2	52.4	> 25.2	157	260	44.9	292
Cc1cc(C#N)cc(C)c1Oc1ccc(C#N)c(NC2CCN(Cc3ccc(S(N)(=O)=O)cc3)CC2)n1	21800	19.4	5630	73.6	194	3.87	19.4	> 21.8	114	2780	36.8	205
Cc1cc(C#N)cc(C)c1Oc1ccc(C#N)c(Nc2ccc(CN3CCN(S(=O)(=O)N(C)C)CC3)cc2)n1	5170	–	26	–	–	197	–	> 5.17	–	–	–	1550
Cc1cc(C#N)cc(C)c1Oc1nc(Nc2ccc(C#N)cc2)c(C#N)cc1F	> 62300	2040	> 8330	1140	≥ 17400	7.47	341	> 311	> 62300	> 62300	22400	112
Cc1cc(C#N)cc(C)c1Oc1nc(Nc2ccc(C#N)c(F)c2)c(C#N)cc1Cl	282000	–	11300	–	–	25	–	> 282	–	–	–	98
Cc1cc(C#N)cc(C)c1Oc1nc(Nc2ccc(CN3CCN(S(=O)(=O)N(C)C)CC3)cc2)c(C#N)cc1Cl	178000	–	2580	–	–	69	–	> 178	–	–	–	686
Cc1cc(C#N)cc(C)c1Oc1nc(Nc2ccc(CN3CCN(S(C)(=O)=O)CC3)cc2)c(C#N)cc1F	213000	–	4740	–	–	44.9	–	> 213	–	–	–	294
Cc1cc(C#N)cc(C)c1Oc1nc(Nc2ccc(CN3CCN(S(=O)(=O)N(C)C)CC3)cc2)c(C#N)cc1F	149000	–	744	–	–	200	–	> 149	–	–	–	2600
Cc1cc(C#N)cc(C)c1Oc1nc(NC2CCN(Cc3ccc(S(C)(=O)=O)cc3)CC2)c(C#N)cc1F	27500	9.37	4890	22.5	67.5	5.62	18.7	> 27	73.1	171	28.1	341
Cc1cc(C#N)cc(C)c1Oc1nc(Nc2ccc(CN3CCN(S(C)(=O)=O)CC3)cc2)c(C#N)cc1Cl	208000	633	14300	238	276	14.5	131	> 208	2960	> 208000	555	392
Cc1cc(C#N)cc(C)c1Oc1ccc(C#N)c(NC2CCN(Cc3ccc(C(N)=O)cc3)CC2)n1	28600	110	3440	318	1020	8.32	50	> 28.6	348	4250	110	256
Cc1cc(C#N)cc(C)c1Oc1ccc(C#N)c(NC2CCN(Cc3ccc(S(C)(=O)=O)cc3)CC2)n1	19100	34.9	3290	136	182	5.82	211	> 19.1	244	7180	38.8	429
Cc1cc(C#N)cc(C)c1Oc1ccc(C#N)c(Nc2ccc(CN3CCN(S(C)(=O)=O)CC3)cc2)n1	18000	–	444	–	–	40.7	–	> 18	–	–	–	277
Cc1cc(C#N)cc(C)c1Oc1ccc(C#N)c(Nc2ccc(C#N)c(F)c2)n1	27300	–	19	–	–	1460	–	> 27.3	–	–	–	12000
Cc1cc(C#N)cc(C)c1Oc1nc(NC2CCN(Cc3ccc(C(N)=O)cc3)CC2)c(C#N)cc1F	24100	44.1	4010	100	347	6.02	26.1	> 24.5	227	3590	84.2	303
Cc1cc(C#N)cc(C)c1Oc1nc(NC2CCN(Cc3ccc(C(N)=O)cc3)CC2)c(C#N)cc1Cl	154000	31.1	26500	66	357	5.83	33	> 154	221	2440	40.8	402
Cc1cc(C#N)cc(C)c1Oc1nc(Nc2ccc(C#N)c(C#N)c2)c(C#N)cc1F	> 306000	–	> 11400	–	–	26.9	–	> 306	–	–	–	230
O=C1Nc2ccc(Cl)cc2[C@@](C#CC2CC2)(C(F)(F)F)O1 [EFAVIRENZ]	> 6340	114	–	31.8	890	2.53	6.34	–	355	–	6.34	–
Cc1cc(C#N)cc(C)c1Oc1nc(Nc2ccc(C#N)cc2)nc(N)c1Br [ETRAVIRINE]	> 4600	3.45	–	4.6	–	–	4.82	–	18.4	20.2	8.96	–
Cc1ccnc2c1NC(=O)c1cccnc1N2C1CC1 [NEVIRAPINE]	> 9510	–	–	1990	> 9510	–	76.1	> 9.51	> 9510	> 9510	4210	–
